# Results as given in US10988459B2 (priority 2015, dated 2021).
# Target: human RIP1 kinase domain (2-375) (Homo sapiens (Human), UniProt Q13546)
# Assay: biochemical
# Type: biochemical
# Conditions: Table 1; apparent Ki (Morrison tight-binding fit); 50 nM RIP1 kinase domain, 50 uM ATP, 2 hours incubation; read-out: RIP1 Ki
# Procedure, shortened: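 50 nM purified kinase domain from baculovirus-infected insect cells, incubated 2 h with compound in 50 mM Hepes pH 7.5, 30 mM MgCl2, 1 mM DTT, 50 uM ATP, 0.002% Brij-35, 0.5% DMSO. ADP formation read by Transcreener FP at 633 nm excitation. Ki^app fitted with the Morrison tight-binding equation.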
# Sequence of human RIP1 kinase domain (2-375) (Q13546 2-375): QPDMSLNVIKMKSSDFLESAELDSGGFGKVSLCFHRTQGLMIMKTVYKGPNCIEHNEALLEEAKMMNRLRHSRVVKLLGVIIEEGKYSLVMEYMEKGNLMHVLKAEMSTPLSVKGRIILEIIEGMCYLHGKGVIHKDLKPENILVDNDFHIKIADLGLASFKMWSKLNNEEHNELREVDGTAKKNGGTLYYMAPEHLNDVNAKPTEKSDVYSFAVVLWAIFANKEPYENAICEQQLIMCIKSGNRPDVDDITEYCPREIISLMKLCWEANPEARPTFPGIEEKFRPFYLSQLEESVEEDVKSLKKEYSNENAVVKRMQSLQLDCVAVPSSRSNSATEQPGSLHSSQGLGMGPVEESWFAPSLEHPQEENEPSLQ
row,SMILES,Ki
1,"CN1C(=O)[C@@H](NC(=O)c2n[nH]c3c2CC2CC2C3)COc2ccccc21 (stereo partly drawn) [Example 56, N-((S)-5-methyl-4-oxo-2,3,4,5-tetrahydrobenzo[b][1,4]oxazepin-3-yl)-1,4,4a,5,5a,6-hexahydrocyclopropa[f]indazole-3-carboxamide]",922 nM
2,"CN1C(=O)[C@@H](NC(=O)c2n[nH]c3c2CC2CC2(C)C3)COc2ccccc21 (stereo partly drawn) [Example 1, 5a-methyl-N—((S)-5-methyl-4-oxo-2,3,4,5-tetrahydrobenzo[b][1,4]oxazepin-3-yl)-1,4,4a,5,5a,6-hexahydrocyclopropa[f]indazole-3-carboxamide]",4700 nM

# Same assay, conditions: Table 5; apparent Ki (Morrison tight-binding fit); 50 nM RIP1 kinase domain, 50 uM ATP, 2 hours incubation; read-out: Ki
row,Ki,SMILES
1,17 nM,"CN1C(=O)[C@@H](NC(=O)c2ncc3c(n2)[C@@](C)(C(F)(F)F)OC3)COc2ccccc21 [Example 743, (7S)-7-methyl-N-[(3S)-5-methyl-4-oxo-2,3-dihydro-1,5-benzoxazepin-3-yl]-7-(trifluoromethyl)-5H-furo[3,4-d]pyrimidine-2-carboxamide]"
2,74 nM,"CN1C(=O)[C@@H](NC(=O)c2nc3n(n2)CCN[C@@H]3c2ccccc2)COc2ccccc21 (single isomer, unassigned) [Example 785]"
3,33 nM,"Cc1cc2n(n1)CC[C@H](NC(=O)c1cc3c(-c4ccccc4)cccc3cn1)C(=O)N2C (racemic) [Example 702, 5-phenyl-N-[rac-(6S)-2,4-dimethyl-5-oxo-7,8-dihydro-6H-pyrazolo[1,5-a][1,3]diazepin-6-yl]isoquinoline-3-carboxamide]"

# Same assay, conditions: human RIP1 kinase domain (2-375), 50 uM ATP, 2 hours incubation, Transcreener ADP assay; read-out: RIP1 Ki
row,Ki,SMILES
1,335 nM,"CN1C(=O)C(NC(=O)c2nnc(Cc3ccccc3)[nH]2)CCCn2cncc21 (centres unmarked) [Example 102, 5-benzyl-N-(1-methyl-2-oxo-1,2,3,4,5,6-hexahydroimidazo[1,5-a][1,3]diazocin-3-yl)-4H-1,2,4-triazole-3-carboxamide]"
2,93.6 nM,"CN1C(=O)[C@@H](NC(=O)c2nnc(Cc3ccccc3)[nH]2)COc2c1cnn2C [Example 181, (S)-5-benzyl-N-(1,4-dimethyl-5-oxo-4,5,6,7-tetrahydro-1H-pyrazolo[3,4-b][1,4]oxazepin-6-yl)-4H-1,2,4-triazole-3-carboxamide]"
3,37.7 nM,"Cc1cc2n(n1)CC[C@H](NC(=O)c1ncn(Cc3ccc(F)cc3F)n1)C(=O)N2C [Example 221, (S)-1-(2,4-difluorobenzyl)-N-(2,4-dimethyl-5-oxo-5,6,7,8-tetrahydro-4H-pyrazolo[1,5-a][1,3]diazepin-6-yl)-1H-1,2,4-triazole-3-carboxamide]"
4,70.4 nM,"CN1C(=O)[C@@H](NC(=O)c2nnc(Cc3ccc(F)cc3)[nH]2)CCn2nccc21 [Example 98, (S)-5-(4-fluorobenzyl)-N-(4-methyl-5-oxo-5,6,7,8-tetrahydro-4H-pyrazolo[1,5-a][1,3]diazepin-6-yl)-4H-1,2,4-triazole-3-carboxamide]"

# Same assay, conditions: human RIP1 kinase domain (2-375), Transcreener ADP assay, 50 uM ATP, 2 hours incubation; read-out: RIP1 Ki
row,Ki,SMILES
1,5 nM,"CC(C)c1ccc2[nH]nc(C(=O)N[C@H]3COc4ccccc4N(C)C3=O)c2c1 [Example 228, (S)-5-isopropyl-N-(5-methyl-4-oxo-2,3,4,5-tetrahydrobenzo[b][1,4]oxazepin-3-yl)-1H-indazole-3-carboxamide]"
2,36.8 nM,"CC[C@@]1(C)OCc2cnc(C(=O)N[C@H]3COc4cc(F)cc(F)c4NC3=O)cc21 [Example 244, (R)—N—((S)-6,8-difluoro-4-oxo-2,3,4,5-tetrahydrobenzo[b][1,4]oxazepin-3-yl)-1-ethyl-1-methyl-1,3-dihydrofuro[3,4-c]pyridine-6-carboxamide]"
3,2200 nM,"CN1C(=O)C(NC(=O)c2ncn(CC3CCOCC3)n2)CCn2nc(C3CC3)cc21 (centres unmarked) [Example 254, N-(2-cyclopropyl-4-methyl-5-oxo-5,6,7,8-tetrahydro-4H-pyrazolo[1,5-a][1,3]diazepin-6-yl)-1-((tetrahydro-2H-pyran-4-yl)methyl)-1H-1,2,4-triazole-3-carboxamide]"

# Same assay, conditions: tight-binding apparent inhibition constant; human RIP1 kinase domain (2-375) 50 nM, 50 uM ATP, 2 hours; read-out: Ki
row,Ki,SMILES
1,400 nM,"Cc1cc2n(n1)CC[C@H](NC(=O)c1ncn(C[C@H]3C[C@H](C)C3)n1)C(=O)N2C [Example 498, N—((S)-2,4-dimethyl-5-oxo-5,6,7,8-tetrahydro-4H-pyrazolo[1,5-a][1,3]diazepin-6-yl)-1-(((1S,3R)-3-methylcyclobutyl)methyl)-1H-1,2,4-triazole-3-carboxamide]"
2,610 nM,"CN1C(=O)[C@@H](NC(=O)c2nc3n(n2)[C@H](c2ccccc2F)CC3)CCn2nccc21 [Example 669, (5S)-5-(2-fluorophenyl)-N-[(6S)-4-methyl-5-oxo-7,8-dihydro-6H-pyrazolo[1,5-a][1,3]diazepin-6-yl]-6,7-dihydro-5H-pyrrolo[1,2-b][1,2,4]triazole-2-carboxamide]"
3,450 nM,"O=C(N[C@H]1COc2cc(F)cc(F)c2NC1=O)c1nc2n(n1)CCC2c1ccccc1 (stereo in doubt) [Example 625, (7S)-7-phenyl-N-[(3S)-6,8-difluoro-4-oxo-3,5-dihydro-2H-1,5-benzoxazepin-3-yl]-6,7-dihydro-5H-pyrrolo[1,2-b][1,2,4]triazole-2-carboxamide]"
4,1200 nM,"Cc1cc2n(n1)CC[C@H](NC(=O)c1ncc3c(n1)C1(CCCOC1)OC3)C(=O)N2C (stereo partly drawn) [Example 544, N-[(6S)-2,4-dimethyl-5-oxo-7,8-dihydro-6H-pyrazolo[1,5-a][1,3]diazepin-6-yl]spiro[5H-furo[3,4-d]pyrimidine-7,3′-tetrahydropyran]-2-carboxamide]"
5,14.8 nM,"CN1C(=O)[C@@H](NC(=O)c2nc3cccc(-c4ccccc4F)n3n2)CCn2nccc21 [Example 386, (S)-5-(2-fluorophenyl)-N-(4-methyl-5-oxo-5,6,7,8-tetrahydro-4H-pyrazolo[1,5-a][1,3]diazepin-6-yl)-[1,2,4]triazolo[1,5-a]pyridine-2-carboxamide]"
6,22.8 nM,"CN1C(=O)[C@@H](NC(=O)c2ncc3c(n2)[C@@](C)(CC(F)(F)F)OC3)COc2ccccc21 (racemic) [Example 691, rac-(7R)-7-methyl-N-[rac-(3S)-5-methyl-4-oxo-2,3-dihydro-1,5-benzoxazepin-3-yl]-7-(2,2,2-trifluoroethyl)-5H-furo[3,4-d]pyrimidine-2-carboxamide]"
7,3.1 nM,"O=C(N[C@H]1COc2cc(F)cc(F)c2NC1=O)c1nc2n(n1)[C@@H](c1ccccc1)CC2 [Example 621, (5R)-5-phenyl-N-[(3S)-6,8-difluoro-4-oxo-3,5-dihydro-2H-1,5-benzoxazepin-3-yl]-6,7-dihydro-5H-pyrrolo[1,2-b][1,2,4]triazole-2-carboxamide]"
8,13.6 nM,"CC(C)[C@@H]1CCCc2nc(C(=O)N[C@H]3COc4ccccc4N(C)C3=O)nn21 (racemic) [Example 414, (S)-5-isopropyl-N—((S)-5-methyl-4-oxo-2,3,4,5-tetrahydrobenzo[b][1,4]oxazepin-3-yl)-5,6,7,8-tetrahydro-[1,2,4]triazolo[1,5-a]pyridine-2-carboxamide]"
9,2100 nM,"Cc1cc2n(n1)CC[C@H](NC(=O)c1cc3c(cn1)COC31CCCOC1)C(=O)N2C (stereo partly drawn) [Example 545, N-[(6S)-2,4-dimethyl-5-oxo-7,8-dihydro-6H-pyrazolo[1,5-a][1,3]diazepin-6-yl]spiro[3H-furo[3,4-c]pyridine-1,3′-tetrahydropyran]-6-carboxamide]"
10,580 nM,"Cc1cc2n(n1)CC[C@H](NC(=O)c1ncn(CC3CCC(F)(F)C3)n1)C(=O)N2C (stereo partly drawn) [Example 569, 1-[(3,3-difluorocyclopentyl)methyl]-N-(6S)-2,4-dimethyl-5-oxo-7,8-dihydro-6H-pyrazolo[1,5-a][1,3]diazepin-6-yl-1,2,4-triazole-3-carboxamide]"
11,35 nM,"Cc1cn2c(n1)N(C)C(=O)[C@H](NC(=O)c1ncn(Cc3ccccc3F)n1)CC2 [Example 659, 1-[(2-fluorophenyl)methyl]-N-(7R)-2,9-dimethyl-8-oxo-6,7-dihydro-5H-imidazo[1,2-a][1,3]diazepin-7-yl-1,2,4-triazole-3-carboxamide]"
12,92 nM,CN1C(=O)[C@@H](NC(=O)c2ncn(C[C@H]3C[C@@H](C(F)(F)F)C3)n2)CCn2nccc21 [Example 493]
13,13.8 nM,"O=C(N[C@H]1COc2cc(F)cc(F)c2NC1=O)c1nc2n(n1)[C@H](C(F)(F)F)CC2 [Example 348, (5S)—N-[(3S)-6,8-difluoro-4-oxo-3,5-dihydro-2H-1,5-benzoxazepin-3-yl]-5-(trifluoromethyl)-6,7-dihydro-5H-pyrrolo[1,2-b][1,2,4]triazole-2-carboxamide]"
14,210 nM,"Cc1cc(F)c2c(c1)OC[C@H](NC(=O)c1nc3n(n1)[C@@H](C(F)(F)F)CCC3)C(=O)N2 (single isomer, unassigned) [Example 427]"
15,41 nM,"CN1C(=O)[C@@H](NC(=O)c2ncn(C[C@H]3C[C@H](C)C3)n2)CCn2nccc21 [Example 497, N—((S)-4-methyl-5-oxo-5,6,7,8-tetrahydro-4H-pyrazolo[1,5-a][1,3]diazepin-6-yl)-1-(((1R,3S)-3-methylcyclobutyl)methyl)-1H-1,2,4-triazole-3-carboxamide]"
16,73.8 nM,"CC[C@@]1(C)OCc2cnc(C(=O)N[C@H]3COc4ccccc4N(C)C3=O)nc21 (mixture of isomers) [Example 682, (7R)-7-ethyl-7-methyl-N-[rac-(3S)-5-methyl-4-oxo-2,3-dihydro-1,5-benzoxazepin-3-yl]-5H-furo[3,4-d]pyrimidine-2-carboxamide]"
17,28 nM,"CN1C(=O)[C@@H](NC(=O)c2nc3cccc(-c4ccccc4)n3n2)CCn2nccc21 [Example 375, (S)—N-(4-methyl-5-oxo-5,6,7,8-tetrahydro-4H-pyrazolo[1,5-a][1,3]diazepin-6-yl)-5-phenyl-[1,2,4]triazolo[1,5-a]pyridine-2-carboxamide]"
